“Also recorded” adds a separate entry of the source. Where two headings read alike, the source gives them in different places.
How the values were obtained:
[1] = test system: PYK2; experiment: Tyrosine phosphorylation of PYK2 in stimulated PC12 cells (anti-PYK2 immunoprecipitation, anti-phosphotyrosine immunoblot); format: cell-based, rat
[2] = test system: Kv1.2 channel; experiment: Kv1.2 currents in microinjected Xenopus oocytes, two microelectrode voltage-clamp; format: cell-based, Xenopus laevis; conditions: for inhibition of outward current: 8 min after addition of 100 nM PMA
Experimental: In vitro capped RNA transcripts of Kv1.2, PYK2 and PKN were synthesized from linearized plasmids DNA templates utilizing the mMESSAGE MMACHINE kit (Ambion), following the supplier's protocols. The products of the transcription reaction (cRNAs) were diluted in RNAse-free water and stored at −70° C. Expression of the RNAs was done by injection of 50nl of RNA into defolliculated stage V and VI oocytes from Xenopus laevis (Iverson et al., J. Neurosc. 10, 2903-2916, 1990). The injected oocytes were incubated for 2-3 days at 20° C. in L15 solution (1:2 dilution of Gibco's Leibovitz L15 medum in H20, with 50U/ml nystatin, 0.1 mg/ml gentamycin, 30 mM HEPES buffer, pH 7.3-7.4, filtered through a […] membrane). Electrophysiological Recording and analysis. Ionic currents were recorded with a two microelectrode voltage-clamp as described (Iverson et al., suDra). The current were low-pass filtered KHz using an 8-pole Bessel filter and stored in a 80286 microcomputer using the pclamp acquisition system (Axon Instruments). The data was analyzed with the clamp fit pro-rams of the pCIamp system (Axon Instruments). All recording were performed at room temperature ([…]). The recording chamber was continually perfused with recording solution. To avoid contamination of the oocyte by Ca+^2-activated Cl^− currents low Cl^− recording solution was used (96 mM Na+, glutamate, 2 mM K^+ glutamate, 0.5 mM CaCl2, 5 mM MgCl2, 5 mM HEPES buffer). The K^+ currents were elicited in depolarizinc, steps from −100 to +40 mv in 10 mV increments every 15 seconds.
Kv1.2 currents from oocytes microinjected with either Kv1.2 mRNA, Kv1.2 and PYK2 mRNAs, or Kv1.2 and a kinase negative mutant of PYK2 mRNAs (PKN). Currents were elicited in response to depolarizing steps from −100 to +30 mV increments from a holding potential of −110 mV. Representative traces of Kv1.2 channels before and after bath application of 100 nM PMA at the annotated time (8 and 20 minutes) in the same cell.
Suppression of Kv1.2 currents in response to PMA is blocked by a kinase negative PYK2 mutant (PKN). […]

[3] = test system: PYK2; experiment: Tyrosine phosphorylation of PYK2 in transiently transfected 293 cells; format: cell-based, human; conditions: PMA 1.6 μM, calcium ionophore 6 μM
Experimental: We examined the possibility whether PYK2 can tyrosine phosphorylate the Kv1.2 channel and regulate its function. In order to test this possibility, we expressed in 293 cells the Kv1.2 protein, Kv1.2 together with PYK2, and as a control Kv1.2 with a kinase negative PYK2 mutant (PKN) or with the protein tyrosine kinase Fak. The cells were grown for 24 hours in medium containing 0.2% serum and then stimulated with PMA (1.6 μM), calcium ionophore (6 μM), or left unstimulated.
Embryonic human kidney 293 cells were transiently transfected with different combinations of mammalian expression vectors which direct the synthesis of Kv1.2-HA, PYK2, a kinase negative PYK2 (PKN) or the protein tyrosine kinase Fak. The cells were grown for 24 h in the presence of 0.2% serum and then either stimulated with PMA (1.6 μM, 10 min at 37° C.), the calcium ionophore A23187 (6 μM, 10 min at 37° C.) or left unstimulated (−).
Tyrosine phosphorylation of each protein was analysed following immunoprecipitation and immunoblotting with anti-phosphotyrosine antibodies. The expression of each protein was determined by immunoblot analysis of total cell lysates from each transfection with anti-PYK2, anti-HA or anti-Fak antibodies.

[4] = test system: Kv1.2 potassium channel; experiment: Tyrosine phosphorylation of Kv1.2 potassium channel in 293 cells coexpressing PYK2; format: cell-based, human; conditions: 293 cells coexpressing Kv1.2-HA and PYK2; PMA 1.6 μM, calcium ionophore 6 μM
[5] = test system: Kv1.2 channel; conditions: after 20 min incubation; as previously shown (Huang et al.); cited from earlier work
[6] = test system: PYK-2; experiment: Tyrosine phosphorylation of PYK-2 in NIH3T3 cell lines that overexpress PYK-2; format: cell-based, mouse; conditions: NIH3T3 cells overexpressing PYK-2 / PYK-2-HA; TPA 6 μM, 15 min at 37° C.
Experimental: Stable cell lines of NIH3T3 that overexpress PYK2 were established by contransfection of PYK2 subcloned into pLSV together with pSV2neo utilizing lipofectamine reagent (GIBCO BRL). Following transfection the cells were grown in Dulbecco's modified Eagle's medium containing 10% fetal bovine serum and 1 mg/ml G418. Transient transfections into 293 cells were performed by using the calcium phosphate technique (*).
The PYK-2 cDNA cloned in PLSV was cotransfected with pSV2neo into PC12 cells and NIH3T3 in order to establish stable cell lines. G418 resistant colonies were screened by immunoprecipitating and immunoblotting.
NIH3T3 cell lines were established that overexpress the PYK-2 and the PYK-2-HA protein. […] The level of phosphorylation is not so high.

[7] = test system: Shc; experiment: Tyrosine phosphorylation of Shc in stimulated PC12 cells (anti-Shc immunoprecipitation, anti-phosphotyrosine immunoblot); format: cell-based, rat; conditions: for effect on carbachol induced tyrosine phosphorylation of Shc: antagonist
Experimental: Tyrosine phosphorylation of Shc in response to bradykinin, carbachol, PMA and other stimuli was also measured. Quiescent PC12 cells were stimulated for 5 min at 37° C. with bradykinin (1AM), carbachol (1 mM), KC1 (75 mM), PMA (1.6pM), NGF (100 ng/ml), or left unstimulated (−). The cells were also stimulated with carbachol (1 mM) or potassium chloride (75 mM) in the presence of 3 mM EGTA. Stimulations with DMPP (100 μM) or muscarine (1 mM) were preformed under the same conditions. […] The Shc proteins were immunoprecipitated with anti-Shc antibodies, the immunoprecipitates were resolved by SDS-PAGE (8%1, transferred to nitrocellulose and immunoblotted with anti-phosphotyrosine antibodies.

[8] = PC12 cells, agent alone, 37° C., b373: TPA 15 min, bradykinin 1 μM 1 min, A23187 2 μM 15 min, KCl 75 mM

Compound: CCCCCCCCCCCCCC(=O)O[C@@H]1[C@@H](C)[C@@]2(O)[C@@H](C=C(CO)C[C@]3(O)C(=O)C(C)=C[C@@H]23)[C@@H]2C(C)(C)[C@]12OC(C)=O [PMA, phorbol 12-myristate 13-acetate]
- effect of prolonged PMA treatment (down-regulation of PKC) on the agent-stimulated tyrosine phosphorylation of PYK2 ([1]; PC12 cells pretreated with 100 nM PMA for 12 h): completely abolished the effect of PMA
- tyrosine phosphorylation of PYK2 in response to the agent [1, 8]: induced tyrosine phosphorylation of PYK2
- tyrosine phosphorylation of PYK2 in response to the agent ([1]; PC12 cells, agent alone, 37° C., b373: TPA 15 min, bradykinin 1 μM 1 min, A23187 2 μM 15 min, KCl 75 mM, listed as TPA): undergoes tyrosine phosphorylation
- inhibition of outward current ([2]; oocytes coexpressing Kv1.2 and PYK2): 95%
- inhibition of outward current ([2]; oocytes expressing Kv1.2 alone): 25%
- effect on Kv1.2 currents ([2]; oocytes expressing Kv1.2): caused inhibition of Kv1.2 currents
- tyrosine phosphorylation of PYK2 in response to the agent [3]: induced tyrosine phosphorylation
- tyrosine phosphorylation of Kv1.2 [4]: enhanced
- inhibition of Kv1.2 currents [5]: 80-90%

Compound: PDGF
- tyrosine phosphorylation of PYK-2 in response to the agent [6]: undergoes tyrosine phosphorylation

Compound: Cholera toxin
- effect on the PYK-2 tyrosine phosphorylation response to TPA / bradykinin [1]: gave higher signal in combination with TPA and bradykinin
- tyrosine phosphorylation of PYK2 in response to the agent [1]: didn't cause phosphorylation of PYK-2 alone

Compound: C[N+](C)(C)CCOC(N)=O [carbachol]
- time after applying the agent at which PYK2 became phosphorylated on tyrosine residues ([1]; PC12 cells): 5 s
- tyrosine phosphorylation of PYK2 in response to the agent [1, 8]: induces strong, tyrosine phosphorylation of PYK2
- time of maximum tyrosine phosphorylation of Shc ([7]; transient, followed by a rapid decline): one

Compound: C[C@@H]1O[C@H](C[N+](C)(C)C)C[C@H]1O [muscarine]
- tyrosine phosphorylation of Shc in response to the agent [7]: had no effect

Compound: [Cl-].[K+] [KCl, potassium chloride]
- tyrosine phosphorylation of PYK2 in response to the agent [1, 8]: induces rapid tyrosine phosphorylation of PYK2

Compound: C[N+]1(C)CCN(c2ccccc2)CC1.[I-] [DMPP, 1,1-dimethyl-4-phenyl piperazinium iodide]
- tyrosine phosphorylation of Shc in response to the agent [7]: induced phosphorylation of Shc

Compound: CNc1ccc2oc(C[C@H]3O[C@@]4(CC[C@H]3C)O[C@H]([C@H](C)C(=O)c3ccc[nH]3)[C@H](C)C[C@H]4C)nc2c1C(=O)O [calcium ionophore A23187]
- tyrosine phosphorylation of PYK2 in response to the agent [1, 8]: undergoes tyrosine phosphorylation; also recorded: PYK2 is phosphorylated on tyrosine residues
- tyrosine phosphorylation of PYK2 in response to the agent [3]: induced a weaker response
- tyrosine phosphorylation of Kv1.2 [4]: enhanced

Compound: aFGF: growth factor stimulus
- tyrosine phosphorylation of PYK-2 in response to the agent [6]: undergoes tyrosine phosphorylation

Compound: CN1[C@@H]2CC[C@H]1C[C@@H](OC(=O)C(CO)c1ccccc1)C2 (stereo partly drawn) [atropine]
- effect on carbachol induced tyrosine phosphorylation of Shc [7]: had no effect

Compound: Pertusis toxin: toxin known to positively regulate G-coupled receptor signalling
- tyrosine phosphorylation of PYK2 in response to the agent [1, 8]: didn't cause any response alone
- effect on the PYK-2 tyrosine phosphorylation response to TPA / bradykinin ([1]; PC12 cells, agent in combination with TPA or bradykinin): induced the response of TPA and bradykinin

Compound: O=C(O)CN(CCOCCOCCN(CC(=O)O)CC(=O)O)CC(=O)O [EGTA, ethyleneglycol-bis (P-aminoethyl ether)-N,N,N′N′-teraacetic acid]
- effect on agonist (carbachol) induced tyrosine phosphorylation of PYK2 ([1]; PC12 cells, elimination of extracellular calcium, EGTA 3 mM): completely blocked agonist induced tyrosine phosphorylation of PYK2

Compound: CNC1(C)C2CCC(C2)C1(C)C (stereo not drawn) [mecamylamine]
- effect on carbachol induced tyrosine phosphorylation of Shc [7]: blocked the effect of carbachol

— patent US20040005648A1, “PYK2 related products and methods” (Sugen, Inc., priority 1994, published 2004)
